Measurements: patent US6420363B1, “Mono- or polyenic carboxylic acid derivatives” (Eisai Co., Ltd., priority 1994, dated 2002)

Experiments:
HL60 cells = test: Antagonism against all-trans retinoic acid in inducing the differentiation of HL60 cells (CD11b-positive cells, flow cytometry); format: cell-based; details: Homo sapiens, HL-60, 120 h; CD11b-positive cells induced by 10 nM all-trans retinoic acid, 5 days
Description: Antagonism Against All-trans Retinoic Acid in Inducing the Differentiation of HL60 Cells
It is known that human promyelocytic leukemia cells HL60 differentiate into granulocyte-like cells in the presence of all-trans retinoic acid (Breitman, T., Selonick, S., and Collins, S., Proc. Natl. Acad. Sci. U.S.A. 77, 2936(1980)). In general, cells allow specific differentiation antigens to be expressed on the cell surfaces when they have achieved differentiation. When HL60 cells differentiate into granulocyte-like cells, CD11b which is a granulocyte/monocyte discriminating antigen is expressed on the cell surfaces (Fontana, J A., Reppuci, A., Durham, J P., and Mirand, D., Cancer Res. 46, 2469-2473 (1986)). The antagonism of a test compound against the differentiation into granulocyte-like cells induced by all-trans retinoic acid was studied by utilizing this phenomenon.
HL60 cells were cultured and maintained in a medium prepared by adding 10% of inactivated fetal bovine serum, 1 mM of sodium pyridinecarboxylate, 50 μM of β-mercaptoethanol, 100 IU/ml of penicillin and 100 μg/ml of streptomycin to RPMI1640 (culture medium formulated by Rosewell Park Memorial Institute).
An HL60 cell suspension (1×10^5 cells/ml) was put in a 48-well plate in an amount of one ml per unit well, followed by the addition of all-trans retinoic acid in a concentration of […] and a retinoid antagonist in various concentrations. The resulting mixtures were cultured in a 5% CO2-air incubator for 5 days. After the completion of the culture, the cells in each well was recovered into a test tube, followed by the addition of an FITC-labeled monoclonal antibody against CD11b (which is a specific antigen against glanulocytes and monocytes). The resulting cell suspension was fixed with 0.2% paraformaldehyde. The fixed cell suspension thus obtained was examined for the content of CD11b-positive cells in the HL60 cell population of each well by flow cytometry (Miller, L. J., Schwarting, R., and Springer, T A., J. Immunol. 137, 2891-2900 (1986)). The compounds which will be described below lowered the content of CD11b-positive cells induced by 10 nM all-trans retinoic acid dependently on the concentration.

[1] = target: T1, all-trans retinoic acid receptors (RAR) (Homo sapiens, UniProt P10276); test: Receptor binding assay using nuclear extract fraction of human promyelocytic leukemia cell HL60; details: inhibition of specific binding of 3H-all-trans retinoic acid, 4° C., 16 hours
T1 construct: determined by the use of the nuclear extract fraction of HL60; endogenous in cells; host or cells: HL60 human promyelocytic leukemia cells, nuclear extract fraction
T1 sequence (P10276 1-462): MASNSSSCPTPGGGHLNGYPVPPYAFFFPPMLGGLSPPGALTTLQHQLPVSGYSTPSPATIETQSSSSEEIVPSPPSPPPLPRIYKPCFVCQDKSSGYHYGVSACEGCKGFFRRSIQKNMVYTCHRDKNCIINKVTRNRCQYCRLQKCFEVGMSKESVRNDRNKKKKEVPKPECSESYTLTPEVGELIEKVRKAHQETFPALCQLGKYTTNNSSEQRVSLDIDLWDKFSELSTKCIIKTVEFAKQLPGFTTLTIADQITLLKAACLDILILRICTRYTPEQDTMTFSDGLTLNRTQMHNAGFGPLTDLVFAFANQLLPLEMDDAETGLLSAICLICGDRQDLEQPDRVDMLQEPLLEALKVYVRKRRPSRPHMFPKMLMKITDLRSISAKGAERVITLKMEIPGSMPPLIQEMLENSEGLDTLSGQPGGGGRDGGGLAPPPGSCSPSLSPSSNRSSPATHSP
Experimental: Receptor Binding Assay Using Human Promyelocytic Leukemia Cell HL60
It is known that all-trans retinoic acid receptors (retinoic acid receptor: RAR) are is present in the nuclei of HL60 cells (Clara Nervi et al., Proc. Natl. Acad. Sci. U.S.A. 86, 5854(1989)). Therefore, the specific binding of all-trans retinoic acid for RAR was determined by the use of the nuclear extract fraction of HL60, and each test compound was examined for the ability to bind RAR by determining the inhibition against the specific binding.
The nuclear extract fraction was prepared as follows.
HL60 cells (5×10^8) were suspended in 15 ml of solution A (sodium phosphate (pH7.4): 5 mM, monothioglycerol: 10 mM, glycerol: 10% (v/v), phenylmethylsulfonyl fluoride (PMSF): 1 mM, aprotinin: 10 μg/ml, and leupeptin: 25 μg/ml). The obtained suspension was homogenized by the use of a homogenizer and centrifuged to remove the resulting supernatant. The sediment thus formed was suspended in 15 ml of solution B (Tris-HCl(pH8.5): 10 mM, monothioglycerol: 10 mM, glycerol: 10% (v/v), PMSF: 1 mM, aprotinin: 10 μg/ml, leupeptin: 25 μg/ml, and KCl: 0.8 M). The obtained suspension was allowed to stand at 4° C. for one hour, and subjected to ultracentrifugation (100,000×g, 4° C., 1 hr). The obtained supernatant was stored as the nuclear extract fraction in a frozen state at −80° C. until the use (METHODS IN ENZYMOLOGY, 189, 248).
The receptor binding assay was conducted as follows.
180 μl of the above fraction and 10 μl of a dilution of all-trans retinoic acid or a test compound were added to each well of a 96-well plate made of polypropylene, followed by the addition of 10 μl of 10 nM^3H-all-trans retinoic acid. The resulting plate was allowed to stand at 4° C. for 16 hours. A solution containing 3% of charcoal and 0.3% of dextran was added to the resulting reaction mixture. The mixture thus obtained was centrifuged to remove free ^3H-all-trans retinoic acid. The radioactivity of the resulting supernatant was determined by the use of a scintillation counter. The specific binding of ^3H-all-trans retinoic acid for RAR was determined by assuming the radioactivity found when 200 times as much all-trans retinoic acid was added to be the non-specific binding and subtracting it from the radioactivity determined above. The compounds which will be described below inhibited the binding of ^3H-all-trans retinoic acid dependently on the concentration.

Row | Structure (SMILES) | IC50 (HL60 cells) [µM] | IC50 [1] [µM] | melting point [°C]
1 | CC(/C=C/C(C)=C/c1ccc2c(c1)CCCN2C(C)C)=C\C(=O)O [Example 4, (E,E,E)-7-[1-(1-methylethyl)-1,2,3,4-tetrahydroquinolin-6-yl]-3,6-dimethyl-hepta-2,4,6-trienoic acid] | 0.074 | 0.02 | 
2 | CC(/C=C/C(F)=C(/C)c1ccc2c(c1)CCCN2C(C)C)=C\C(=O)O [Example 5, (E,E,E)-7-[1-(1-methylethyl)-1,2,3,4-tetrahydroquinolin-6-yl]-6-fluoro-3-methyl-octa-2,4,6-trienoic acid] | 0.039 | 0.0054 | 
3 | COC(=O)/C=C(C)/C=C/C(F)=C(/C)c1ccc2c(c1)C(C)CCN2C(C)C (stereo not shown) [Example 8, Methyl (E,E,E)-7-[1-(1-methylethyl)-4-methyl-1,2,3,4-tetrahydroquinolin-6-yl]-6-fluoro-3-methyl-octa-2,4,6-trienoate] | 0.47 | 0.017 | 
4 | CC(/C=C/C(F)=C(/C)c1ccc2c(c1)C(C)CCN2C(C)C)=C\C(=O)O (stereo not shown) [Example 9, (E,E,E)-7-[1-(1-Methylethyl)-4-methyl-1,2,3,4-tetrahydroquinolin-6-yl]-6-fluoro-3-methyl-octa-2,4,6-trienoic acid] | 0.88 | > 0.05 | 
5 | CCOC(=O)/C(F)=C(/C)c1ccc2c(c1)CC(C)CN2C(C)C (stereo not shown) [Example 13, Ethyl (E)-3-[1-(1-methylethyl)-3-methyl-1,2,3,4-tetrahydroquinolin-6-yl]-2-fluoro-2-butenoate] | 0.029 | 0.0125 | 
6 | COC(=O)/C=C(C)/C=C/C(F)=C(/C)c1ccc2c(c1)CC(C)CN2C(C)C (stereo not shown) [Example 14, Methyl (E,E,E)-7-[1-(1-methylethyl)-3-methyl-1,2,3,4-tetrahydroquinolin-6-yl]-6-fluoro-3-methyl-octa-2,4,6-trienoate] | 0.13 | 0.013 | 
7 | CC1(C)CCC(C)(C)c2c1sc1c2-c2c(c(-c3ccc(C(=O)O)cc3)cn2Cc2cccnc2)CC1 [Example 210] |  |  | 289 to 290
